# Source: US20250268845A1, “BONE REGENERATION COMPOSITION INCLUDING HORDENINE AND USE THEREOF” ([…]., priority 2023, published 2025)
# Experiments:
# [1] = tested on: mesenchymal stem cells; assay: Differentiation of mesenchymal stem cells into chondrocytes, Alcian blue staining; format: cell-based; conditions: 5 or 10 µM hordenine, compared to the group treated only with a differentiation medium, FIG. 1
# Protocol: Specifically, mesenchymal stem cells were seeded at 2.5×10^4 cells/48 well and divided into a group treated only with the basic medium α-MEM, a group treated only with a differentiation medium (Chondrogenic media (CM)), and groups treated with 5 or 10 µM hordenine. After a few days, the degree of chondrocyte differentiation was evaluated by Alcian blue staining.
# [2] = tested on: osteoclasts; assay: Bone resorption assay on dentin disc through hematoxylin staining; format: cell-based, mice; conditions: 10, 20, or 40 μM for 3 days, pre-osteoclasts from BMMs, compared to non-treatment; FIG. 5A
# Protocol: (§1) Specifically, bone marrow-derived macrophages (BMMs) were isolated from 3- to 4-week-old mice and cultured. On day 5, the BMMs were treated with receptor activator of nuclear factors KB ligand (RANKL) and macrophage-colony stimulating factor (M-CSF) for 3 days to be differentiated into pre-osteoclasts. Thereafter, to confirm the degree of osteoclast activation, the pre-osteoclasts were treated with 10, 20, or 40 μM of hordenine for 3 days, and a bone resorption assay through hematoxylin staining and a dentin disc actin ring assay through immunofluorescence staining were performed to confirm the degree of osteoclast activation. Bone resorption assay is a method of seeding osteoclasts on a dentin disc, which is an experimental bone tissue simulating the dentin component of bone, and quantifying the extent to which osteoclasts eat away at the bone. When holes formed by bone erosion are quantified, the pit area is measured, and a lower measurement indicates a lower degree of bone erosion. The more extensively the disc is eroded, the more intensely the disc stains with hematoxylin, while less eroded areas stain more lightly. […]
# [3] = tested on: osteoclasts; assay: LPS-induced bone destruction in mouse skull, TRAP staining; format: in vivo, mice; conditions: 1 mg/kg intra-calvarially for 5 days after LPS 12.5 mg/kg; skulls harvested 6 days after the first LPS injection day; compared to LPS only; FIG. 6
# Protocol: Specifically, 12.5 mg/kg of lipopolysaccharide (LPS) was injected intra-calvarially into the skull of 5-week-old male mice twice in total: once on the first injection day and once 2 days after the first injection day, thereby inducing bone destruction. Thereafter, 1 mg/kg of hordenine was injected intra-calvarially for 5 days, starting 1 day after the first LPS injection day. 6 days after the first LPS injection day, the mice were sacrificed and the skulls were harvested from the mice. Then, the degree of osteoclast differentiation was evaluated by tartrate-resistant acid phosphatase (TRAP) staining. The results thereof are illustrated in FIG. 6.
# [4] = tested on: osteoarthritis induced by DMM; assay: Cartilage regeneration in DMM-induced osteoarthritis, Safranin O and fast green staining; format: in vivo, mice; conditions: 2 mg/kg intra-articularly for 4 weeks from week 5 after DMM, examined at week 9
# Protocol: Specifically, osteoarthritis was induced by incising the ligament that stabilizes the medial meniscus in the joint tissue of 9-week-old mice. Starting from week 5 after destabilization of the medial meniscus (DMM), 2 mg/kg of hordenine was injected intra-articularly for 4 weeks, and at week 9, the mice were sacrificed and the joint tissues were examined by staining with Safranin O and fast green. The experimental process is illustrated in FIG. 2, and the experimental results are illustrated in FIGS. 3A and 3B.
# [5] = tested on: osteoclasts; assay: Dentin disc actin ring assay through immunofluorescence staining; format: cell-based, mice; conditions: 10, 20, or 40 μM for 3 days, pre-osteoclasts from BMMs, compared to non-treatment; FIG. 5B
# Protocol: as §1
smiles,measurement,setting,value
"CN(C)CCc1ccc(O)cc1 [hordenine, 4-(2-dimethylaminoethyl) phenol]",degree of differentiation from mesenchymal stem cells into chondrocytes,[1],much higher
same,hematoxylin staining (bone erosion of dentin disc),[2],became lighter in a concentration-dependent manner
same,pit area,[2],reduced
same,TRAP staining of skulls (degree of osteoclast differentiation),[3],lightly stained with TRAP
same,cartilage degradation (OARSI grade),[4],decrease
same,osteophytes caused by osteoarthritis induction,[4],reduced
same,synovitis,[4],reduced
same,thickness of subchondral bone plate (SBP),[4],reduced
same,cartilage (red portion) that had collapsed due to DMM,[4]; FIGS. 3A and 3B,restored
same,number of osteoclasts forming actin rings,[5],decreased in a concentration-dependent manner
